The values that follow come from article PMC6099682, “(-)-Shikimic Acid as a Chiral Building Block for the Synthesis of New Cytotoxic 6-Aza-Analogues of Angucyclinones” (Molecules : A Journal of Synthetic Chemistry and Natural …, 2018).

Some results are limits rather than exact numbers.

For one data set, the system named is lung carcinoma, MBA9812. On the set-up: method as in doi:10.1021/jo00007a009. As to conditions: cited from earlier work.
The subject of another data set is SF-268. On the set-up: method as in PMID 23136829. As to conditions: read-out: IC50, in vitro cytotoxicity toward SF-268; cited from earlier work.
The subject of another data set is MCF-7. Further details: method as in PMID 23136829. As to conditions: read-out: IC50, in vitro cytotoxicity toward MCF-7; cited from earlier work.
In the next data set the test system is Staphylococcus aureus. On the set-up: method as in PMID 26968676. As to conditions: cited from earlier work.
The next data set deals with PC-3 (prostate cancer). Kind of data set: Sulforhodamine B cytotoxicity assay, PC-3. Type of data set: cell-based. As to conditions: for IC50: 72 h, 72 h continuous exposure, SRB assay, mean ± SD; for Selectivity index (SI), ratio of IC50 in CoN in cancer cells, PC-3: CCD841-CoN IC50 / PC-3 IC50. On the procedure:
(§1) To analyse the scope of the shikimic-fragment incorporated in the angucycline scaffold on the cytotoxic activity of these compounds, we included five previously obtained compounds (Figure 2, [32]). Therefore, the cytotoxicity of the new nine synthesised compounds, and of the five aforementioned compounds, was evaluated in vitro against different cancer cell lines: PC-3 (prostate cancer), HT-29 (colon cancer), MCF-7 (breast cancer), and one non-tumoral cell line, human colon epithelial cells (CCD841 CoN). A conventional colorimetric assay was set up to estimate the IC50 values, which represent the concentration of a drug that is required for 50% inhibition in vitro after 72 h of continuous exposure to the test compounds. Several serial dilutions (from 1.25 to 100 µM) for each sample were evaluated in triplicate.
(§2) The experimental cell lines were obtained from the American Type Culture Collection. HT-29 (colon cancer cell line), PC-3 (prostate cancer), MCF-7 (breast cancer), and CCD841 CoN (colon epithelial) were grown in DMEM-F12 containing 10% FCS, 100 U/mL penicillin, 100 µg/mL streptomycin, and 1 mM glutamine.
(§3) The in vitro cytotoxic activities of all the compounds were evaluated on cell lines previously mentioned by the sulforhodamine B assay, according to [42]. Briefly, cells were seeded at a plating density of 5 × 10^3 cells/well into 96 well plates. Cells were incubated at 37 °C for 24 h to allow cell attachment. The test compounds at indicated final concentrations were added to the culture medium and the cell cultures were continued for 72 h under the same conditions. Stock solutions of compounds were prepared in DMSO. Control cultures received 0.1% DMSO alone. At the end of the treatment, cells were fixed with trichloroacetic acid (50% w/v) at 4 °C and, subsequently, washed with water. Cells were stained with 0.1% sulforhodamine B in 1% acetic acid for 30 min. Posteriorly, the cells were washed acetic acid (1%) to remove unbound sulforhodamine B. Protein-bound stain was solubilized with 10 mM unbuffered Tris base). The optical density was determined using a […] plate reader (540 nm). The obtained values are transformed to percentages of viable cells versus control treatment and the IC50 values calculated for each compound in the cell lines were studied using the SigmaPlot 12.0 software (Systat Software, San Jose, CA, USA). Values shown are the mean ± SD of the three independent experiments in triplicate.

The next data set concerns HT-29 (colon cancer). The data set can be described thus: Sulforhodamine B cytotoxicity assay, HT-29. Type of data set: cell-based. As to conditions: for Selectivity index (SI), ratio of IC50 in CoN in cancer cells, HT-29: CCD841-CoN IC50 / HT-29 IC50; for IC50: 72 h continuous exposure, SRB assay, mean ± SD. The method, then: as §1, §2, §3
For the next data set, the system named is MCF-7 (breast cancer). Kind of data set: Sulforhodamine B cytotoxicity assay, MCF-7. The data set is classed as cell-based. As to conditions: for Selectivity index (SI), ratio of IC50 in CoN in cancer cells, MCF-7: CCD841-CoN IC50 / MCF-7 IC50; for IC50: Homo sapiens, MCF7, 72 h continuous exposure, SRB assay, mean ± SD, read-out: IC50 Values MCF-7. The method, then: as §1, §2, §3

Data set [1] relates to human colon epithelial cells (CCD841 CoN). Kind of data set: Sulforhodamine B cytotoxicity assay, non-tumoral CCD841 CoN. Type of data set: cell-based. As to conditions: CCD-841CoN, 72 h continuous exposure, SRB assay, mean ± SD. The method, then: as §1, §2, §3

On to `CN[C@H]1C[C@@H](Oc2cc(C)cc3cnc4c(c23)C(=O)c2cccc(O)c2C4=O)O[C@H](C)[C@H]1O` [Compound 4a, phenanthroviridin], for which the “activity against the lung carcinoma, MBA9812, in mice” value with lung carcinoma, MBA9812 is reported as “active”.

For `Cc1cc(O)c2c3c(ncc2c1)C(=O)c1c(O)cccc1C3=O` [Compound 4b, phenanthroviridone], the 50% inhibitory concentration (IC50) (as a rule, the midpoint of a concentration-inhibition curve) is 90 nM with SF-268 and 170 nM in the data set with MCF-7. In addition, the “activity against the lung carcinoma, MBA9812, in mice” value in the data set on lung carcinoma, MBA9812 was “active”. For the same compound, the “antibacterial activities against Staphylococcus aureus” value in the data set on Staphylococcus aureus was “antibacterial activities”.

`CO[C@@H]1[C@@H]2C(=CN(N(C)C)C3=C2C(=O)c2ccccc2C3=O)C[C@@H](OC)[C@@H]1OC` [Compound 15, (1R,2S,3R,12bR)-6-(Dimethylamino)-1,2,3-trimethoxy-1,2,3,4,6,12b-hexahydrobenzo[b]phenanthridine-7,12-dione]: the melting point (in general, the temperature of the solid-liquid transition) stood at 128.5 °C. In addition, in the data set with PC-3 (prostate cancer), the midpoint of inhibition, the IC50, lay at 34.8 ± 0.3 µM and the “Selectivity index (SI), ratio of IC50 in CoN in cancer cells, PC-3” value (from here on “Selectivity index (SI), ratio of IC50 … PC-3”) stood at 2.3. In addition, the “Selectivity index (SI), ratio of IC50 in CoN in cancer cells, HT-29” value (“Selectivity index (SI), ratio of IC50 … HT-29” for short) in the data set on HT-29 (colon cancer) was 2.8. Besides, the IC50 in the data set with HT-29 (colon cancer) (Homo sapiens, HT-29, 72 h) worked out at 29.2 ± 6.8 µM. In the data set with MCF-7 (breast cancer), the “Selectivity index (SI), ratio of IC50 in CoN in cancer cells, MCF-7” value (“Selectivity index (SI), ratio of IC50 … MCF-7” for short) is listed as 1.0 and the IC50 stood at 78.1 ± 6.9 µM. For the same compound, 81.6 ± 15.8 µM corresponded to half-maximal inhibition in [1] (IC50).

On to `CO[C@@H]1[C@@H]2C(=CNC3=C2C(=O)c2ccccc2C3=O)C[C@@H](OC)[C@@H]1OC` [Compound 16a, (1R,2S,3R,12bR)-1,2,3-Trimethoxy-1,2,3,4,6,12b-hexahydrobenzo[b]phenanthridine-7,12-dione], for which the melting point worked out at 161.5 °C. Moreover, in the data set on PC-3 (prostate cancer), the IC50 worked out at 23.6 ± 3.7 µM and the “Selectivity index (SI), ratio of IC50 … PC-3” value is 4.9. The “Selectivity index (SI), ratio of IC50 … HT-29” value in the data set with HT-29 (colon cancer) is given as 2.7. In the data set with HT-29 (colon cancer) (Homo sapiens, HT-29, 72 h), this compound came in with an IC50 of 42.9 ± 8.4 µM. In the data set on MCF-7 (breast cancer), the “Selectivity index (SI), ratio of IC50 … MCF-7” value is given as 1.0 and the IC50 came to 118 ± 10.8 µM. In addition, the IC50 in [1] was 116 ± 17.8 µM.

Regarding `CO[C@@H]1[C@@H]2C(=CNC3=C2C(=O)c2cccc(O)c2C3=O)C[C@@H](OC)[C@@H]1OC` [Compound 16b, (1R,2S,3R,12bR)-8-Hydroxy-1,2,3-trimethoxy-1,2,3,4,6,12b-hexahydrobenzo[b]phenanthridine-7,12-dione], the melting point stood at 177.3 °C. In the data set on PC-3 (prostate cancer), 6.6 ± 1.1 µM corresponded to half-maximal inhibition (IC50) and the “Selectivity index (SI), ratio of IC50 … PC-3” value was determined as 2.3. For the same compound, the “Selectivity index (SI), ratio of IC50 … HT-29” value with HT-29 (colon cancer) is 2.9. Moreover, the IC50 in the data set with HT-29 (colon cancer) (Homo sapiens, HT-29, 72 h) was 5.3 ± 0.8 µM. Besides, in the data set on MCF-7 (breast cancer), the “Selectivity index (SI), ratio of IC50 … MCF-7” value is listed as 1.3 and the IC50 worked out at 11.5 ± 3.1 µM. The IC50 in data set [1] stood at 15.5 ± 3.1 µM.

Take `CO[C@@H]1[C@@H]2C(=CNC3=C2C(=O)c2c(O)ccc(O)c2C3=O)C[C@@H](OC)[C@@H]1OC` [Compound 16c, (1R,2S,3R,12bR)-8,11-Dihydroxy-1,2,3-trimethoxy-1,2,3,4,6,12b-hexahydrobenzo[b]phenanthridine-7,12-dione]: the melting point was found to be 139 °C. In addition, in the data set on PC-3 (prostate cancer), the IC50 was found to be 6.4 ± 0.8 µM and the “Selectivity index (SI), ratio of IC50 … PC-3” value is given as 1.4. For the same compound, the “Selectivity index (SI), ratio of IC50 … HT-29” value in the data set with HT-29 (colon cancer) turned out to be 2.2. In addition, it took 4 ± 0.3 µM to reach half-maximal inhibition with HT-29 (colon cancer) (Homo sapiens, HT-29, 72 h) (IC50). In addition, in the data set with MCF-7 (breast cancer), the “Selectivity index (SI), ratio of IC50 … MCF-7” value turned out to be 0.7 and the IC50 was 13.5 ± 0.9 µM. The same compound displayed an IC50 in data set [1] of 8.8 ± 1.3 µM.

`CO[C@@H]1[C@H](OC)c2c(cnc3c2C(=O)c2ccccc2C3=O)C[C@H]1OC` [Compound 17, (1R,2S,3R)-1,2,3-Trimethoxy-1,2,3,4-tetrahydrobenzo[b]phenanthridine-7,12-dione] had a melting point of 184.8 °C. Moreover, in the data set on PC-3 (prostate cancer), the IC50 amounted to 3.9 ± 0.6 µM and the “Selectivity index (SI), ratio of IC50 … PC-3” value stood at 3.0. Besides, in the data set with HT-29 (colon cancer), 3.3 ± 0.9 µM corresponded to half-maximal inhibition (IC50) and the “Selectivity index (SI), ratio of IC50 … HT-29” value is reported as 3.6. This compound also returned an IC50 with HT-29 (colon cancer) (Homo sapiens, HT-29, 72 h) of roughly 3 µM. In addition, in the data set with MCF-7 (breast cancer), the “Selectivity index (SI), ratio of IC50 … MCF-7” value worked out at 1.0 and the concentration for half-maximal inhibition (IC50) is 11.9 ± 1.5 µM. For the same compound, the IC50 in data set [1] was found to be 11.8 ± 1.3 µM.

With `CO[C@H]1C=Cc2cnc3c(c2[C@@H]1OC)C(=O)c1ccc(C)nc1C3=O` [Compound 19b, (1S,2S)-1,2-Dimethoxy-9-methyl-1,2-dihydropyrido[3,2-b]phenanthridine-7,12-dione], the melting point is 161.2 °C. For the same compound, the “Selectivity index (SI), ratio of IC50 … PC-3” value in the data set on PC-3 (prostate cancer) is 0.7. This compound came in with an IC50 in the data set with HT-29 (colon cancer) of 0.39 ± 0.04 µM. Also, the IC50 with HT-29 (colon cancer) (Homo sapiens, HT-29, 72 h) was less than 0.4 µM. Also, in the data set with MCF-7 (breast cancer), the “Selectivity index (SI), ratio of IC50 … MCF-7” value was 1.6 and the IC50 is 0.19 ± 0.04 µM. In addition, the IC50 in data set [1] came to 0.3 ± 0.02 µM.

Regarding `CO[C@H]1C=Cc2cnc3c(c2[C@@H]1OC)C(=O)c1ccccc1C3=O` [Compound 19c, (1S,2S)-1,2-Dimethoxy-1,2-dihydrobenzo[b]phenanthridine-7,12-dione], the melting point stood at 117.5 °C. In addition, in the data set on PC-3 (prostate cancer), the IC50 was determined as 4 ± 0.4 µM and the “Selectivity index (SI), ratio of IC50 … PC-3” value stood at 4.4. The “Selectivity index (SI), ratio of IC50 … HT-29” value with HT-29 (colon cancer) was 0.8. Besides, the IC50 in the data set on HT-29 (colon cancer) (Homo sapiens, HT-29, 72 h) is 21 ± 3.6 µM. In the data set on MCF-7 (breast cancer), the “Selectivity index (SI), ratio of IC50 … MCF-7” value turned out to be 1.4 and the IC50 was 12.8 ± 1.4 µM. For the same compound, half-maximal inhibition in data set [1] (IC50) required 17.4 ± 2 µM.
